Measured values from PubChem BioAssay AID1288 (Columbia University Molecular Screening Center, 2008).
Calls of active or inactive are those of the source. The rule behind the calls is not given here.

assay: inhibitors of TNFa-induced E-selectin expression, confirmation, imaging, retest plus dose response, cell count (AID 1288); settings: human endothelial cells, TNFa-induced E-selectin, imaging; at 2 µM; hits give high values;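 note: 0% = stimulated vehicle wells and 100% = unstimulated vehicle wells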

| SMILES | inhibition |
| --- | --- |
| C/C(=N\Nc1cccc2cccnc12)c1ccccc1O | -0.47% (inactive) |
| CCC(CC)C(=O)c1c[nH]c(C(=O)NCCCN2CCOCC2)c1 | 2.64% (inactive) |
| Cn1c(N)c(C(=O)COC(=O)CN2C(=O)c3ccccc3C2=O)c(=O)n(C)c1=O | 17.5% (inactive) |
| Cc1c(Cl)cccc1N1C(=O)CC(N(O)c2ccccc2)C1=O (stereo unspecified) | 12.9% (inactive) |
| O=C(C1CCN(c2nc3ccc(Br)cc3s2)CC1)N1CCC2(CC1)OCCO2 | 5.07% (inactive) |
| COc1cccc(/C=N/NC(=O)c2c(-c3ccccc3)noc2C)c1 | 4.18% (inactive) |
| CCCCCCOC(=O)/C=C/c1c(C)[nH]c(=O)[nH]c1=O | 30.8% (inactive) |
| CSc1nc(=O)n2cc(C)ccc2n1 | 1.88% (inactive) |
| COCCOC(=O)c1c(NC(=O)CN2CCOCC2)sc(C(N)=O)c1C | 16.3% (inactive) |
| COc1ccc(CCNC(=O)CSc2nc(-c3ccco3)cc(C(F)(F)F)n2)cc1OC | 18.9% (inactive) |
| CCCCCn1c(CN2CCN(Cc3ccccc3)CC2)nc2c1c(=O)n(C)c(=O)n2C | 2.55% (inactive) |
| CCn1c(SCC(=O)Nc2ccccc2OC)nnc1-c1cnccn1 | 6.59% (inactive) |
| Cc1cc2cc(NC(=O)c3ccco3)ccc2[nH]1 | -3.69% (inactive) |
| O=C(N/N=C/c1ccc([N+](=O)[O-])s1)c1cccnc1 | 44.3% (inactive) |
| CC(C)=C1SC(N2CCN(c3ccc(C)cc3)CC2)=NC1=O | -3.72% (inactive) |
| CCNC(=O)CN(CCc1ccccc1)S(C)(=O)=O | 7.43% (inactive) |
| Cn1c(SCc2ccc(Br)cc2)nnc1-c1ccncc1 | 0.83% (inactive) |
| Cc1ccc(C)c(N(CC(=O)NCCSCc2ccco2)S(C)(=O)=O)c1 | 6.59% (inactive) |
| COc1ccc(NC(=O)c2ccc(CNc3c(NC4CCCCC4)c(=O)c3=O)cc2)cc1OC | 3.32% (inactive) |
| COc1cccc(-n2c(SC3CCOC3=O)nc3ccccc3c2=O)c1 (stereo unspecified) | 27.9% (inactive) |
| COc1ccc(-c2csc3ncnc(Oc4cccc5ccc(C)nc45)c23)cc1 | 5.48% (inactive) |
| COc1ccccc1NC(=S)N(Cc1ccco1)Cc1cc2cccc(C)c2[nH]c1=O | 30.6% (inactive) |
| Cc1ccc(NC(=O)Nc2ccc3c(c2)N(C)C(=O)CS3)nc1 | 3.21% (inactive) |
| Cc1ccc(N2C(=O)C3C4C=CC(CNC(=S)Nc5ccc(F)cc5)(O4)C3C2=O)cc1 (stereo unspecified) | 5.92% (inactive) |
| C=CCNC(=O)/C=C/c1cccs1 | -0.12% (inactive) |
| O=C(CCCN1CCOCC1)c1ccc2c(c1)OCCO2 | 2.27% (inactive) |

| SMILES | inhibition |
| --- | --- |
| COCCCNC(=O)COc1ccc(S(=O)(=O)NCc2ccccc2)cc1Cl | 7.46% (inactive) |
| Cc1ccc(/C([O-])=C(/C(=S)NCc2ccccc2)[n+]2cccc(CO)c2)cc1[N+](=O)[O-] | -5.81% (inactive) |
| CCOc1cc(C(=O)NCCCn2ccnc2)cc(OCC)c1OCC | -4.2% (inactive) |
| O=S(=O)(N1CCOCC1)N1CCN(c2ccccc2F)CC1 | -1.16% (inactive) |
| CC(C(=O)O)C1SC(=O)NC1=O (stereo unspecified) | 12.7% (inactive) |
| C=CCN1CCN(C(c2cc(OC)ccc2OC)c2nnnn2CC2CCCO2)CC1 (stereo unspecified) | 31.2% (inactive) |
| CCOC(=O)c1c(C)[nH]c(C(=O)OCCOc2ccccc2C)c1C | 0.85% (inactive) |
| O=C(CSc1ccccn1)N/N=C/c1ccccc1[N+](=O)[O-] | 5.02% (inactive) |
| O=Cc1ccc(OCc2ccccn2)cc1 | 15.8% (inactive) |
| Cc1cc(C)cc(NC(=S)NC2CC3CCCC(C2)N3C2CC2)c1 (stereo unspecified) | 0.55% (inactive) |
| Cc1cc(NC(=O)CCC(=O)N(CC(=O)NCC2CCCO2)c2ccccc2C)no1 (stereo unspecified) | 14.8% (inactive) |
| Cc1ccc(C2(O)CN(c3ccccc3C)C3=[N+]2CCS3)cc1 (stereo unspecified) | 2.57% (inactive) |
| Cc1cc(NCCN2CCCCC2)n2c(nc3ccccc32)c1C#N | 11.7% (inactive) |
| O=C(Nc1cc2ccccc2oc1=O)c1ccccc1 | 7.06% (inactive) |
| Cc1cc(C(=O)CN2C(=O)CCC2=O)c(C)n1Cc1ccccc1 | 13.3% (inactive) |
| Cc1ccc(SCCC(=O)Nc2ccccc2C(=O)NC(C)C)cc1 | 12.3% (inactive) |
| CN(C)S(=O)(=O)c1cc(NC(=O)CN2C(=O)NC3(CCCc4ccccc43)C2=O)ccc1Cl (stereo unspecified) | 4.67% (inactive) |
| O=S1(=O)CCC(NC(=S)N2CCCCCC2)C1 (stereo unspecified) | 18.2% (inactive) |
| CC(C)(CO)NCC(O)Cn1cc(C=O)c2ccccc21 (stereo unspecified) | -5.31% (inactive) |
| O=C(c1cnccn1)N1CCN(c2ccccc2)CC1 | 30.4% (inactive) |
| Cc1cc(=O)n2nc(-c3ccccc3)sc2c1C#N | 1.2% (inactive) |
| CCC(C)Nc1nc(OC(C(F)(F)F)C(F)(F)F)nc(OC(C(F)(F)F)C(F)(F)F)n1 (stereo unspecified) | 9.28% (inactive) |
| CCOC(=O)c1ccc(NC(=S)NCC(O)c2ccccc2)cc1 (stereo unspecified) | 4.17% (inactive) |
| Cn1cc(Cl)c(C(=O)NNC(=S)NCc2ccco2)n1 | 7.71% (inactive) |
| O=C(/C=C/Nc1cccc(C(F)(F)F)c1)c1ccc(Oc2ncccn2)cc1 | 18% (inactive) |
| CCOC(=O)c1cc2c(ccn2C)n1CC(=O)N1CCC(Cc2ccccc2)CC1 | 4.26% (inactive) |

| SMILES | inhibition |
| --- | --- |
| O=C(Nc1nnc(C2CC2)s1)c1cc(-c2ccccc2)nn1-c1ccccc1 | 6.68% (inactive) |
| COCCN1CN(S(=O)(=O)c2ccccc2)c2nc3ccccc3nc21 | 2.89% (inactive) |
| O=C(O)CCC(=O)Nc1ccc(Br)c(Cl)c1 | -3.06% (inactive) |
| COCCCNC(=S)N1CCN(c2ccc([N+](=O)[O-])cc2)CC1 | 20% (inactive) |
| CCCOc1ccc(NC(=O)C(=O)NCCCn2ccnc2)cc1 | 42.5% (inactive) |
| c1csc(C(c2nnnn2C2CCCC2)N2CCCC3(CCCCC3)C2)c1 (stereo unspecified) | -3.21% (inactive) |
| O=C(Nc1ccccc1N1CCOCC1)c1ccc(Cl)nc1 | 3.97% (inactive) |
| COc1ccc(CCN(C)c2ccc(S(=O)(=O)N3CCCC3)cn2)cc1OC | 28.4% (inactive) |
| O=C(CN1CCN(c2ccccc2F)CC1)c1c[nH]c2ccccc12 | -2.26% (inactive) |
| COc1cc(NC(=O)CN2CCC(C)CC2)c(C)cc1[N+](=O)[O-] | 8.41% (inactive) |
| CN(Cc1ccccc1)C(=S)NC(=O)C1CCCCC1 | 8.28% (inactive) |
| O=C(COc1ccc([N+](=O)[O-])cc1Cl)NCCc1ccccc1 | -2.48% (inactive) |
| Cc1ccc2oc(Nc3nc(-c4ccccc4)cc(=O)[nH]3)nc2c1 | 10.7% (inactive) |
| Cn1c(O)c(C(=N)COc2cccc(Cl)c2)c(=O)n(C)c1=O | 18.8% (inactive) |
| Cc1ccc(C(=O)n2c(=S)nc3ccccn32)cc1 | 22.2% (inactive) |
| CCCCc1c(O)nc(SCC(=O)Nc2ccc3c(c2)CCC3)[nH]c1=O | 14.6% (inactive) |
| O=C(NCc1ccccc1)N1CCN(c2ccc(Cl)c(Cl)c2)CC1 | 15.4% (inactive) |
| O=C(OCC1CC(c2ccccn2)=NO1)c1ccc(Br)cc1 (stereo unspecified) | 9.31% (inactive) |
| CCN1CCN(Cc2cc(OC)c(OC)cc2[N+](=O)[O-])CC1 | 12.6% (inactive) |
| O=C1C=C(c2ccccc2)C(O)(c2ccccc2)C1 (stereo unspecified) | -0.71% (inactive) |
| O=[N+]([O-])c1ccc(O)c(/C=N/Nc2ccc(Cl)nn2)c1 | 3.18% (inactive) |
| Cc1ccc2nc(-c3cccc(NC(=O)c4ccc5c(c4)OCCO5)c3)oc2c1 | 4.99% (inactive) |
| COc1ccc(Cc2nnc(NC(=O)Cc3cccs3)s2)cc1 | 1.69% (inactive) |
| Cn1nnnc1SCc1nnc(-c2ccc(Cl)cc2)o1 | 6.53% (inactive) |
| C=CCNC(=S)NNC(=O)c1ccc(Br)cc1 | 38.3% (inactive) |
| CCOC(=O)c1c(NC(=O)CSc2nnc(C)c(=O)[nH]2)sc(C)c1C | 8.64% (inactive) |

| SMILES | inhibition |
| --- | --- |
| O=C(NC1CCCCC1)C(c1cccs1)N(C(=O)c1ccco1)c1ccc2c(c1)OCCO2 (stereo unspecified) | 8.94% (inactive) |
| Cc1sc(NC(=O)c2ccco2)c(CN2CCN(c3ccccn3)CC2)c1C | 24.4% (inactive) |
| COc1cccc(CNc2ccc(F)c(Cl)c2)c1 | 39.9% (inactive) |
| CCn1c(SCC(=O)Nc2ccccc2)nnc1C1CCCCC1 | 2.46% (inactive) |
| CCCCCOC(=O)Cn1c(SCC(=O)Nc2ccccc2)nc2c1c(=O)[nH]c(=O)n2C | -1.58% (inactive) |
| COCCCNC(=O)CN1C(=O)c2ccccc2C1=O | 5.47% (inactive) |
| Cc1ccc(-n2ncc3c(=O)n(CC(=O)N4CCCCCC4)cnc32)cc1 | -0.4% (inactive) |
| CCOC(=O)C1=C(c2ccccc2)N(C)C(=O)NC1c1ccc(O)c(OC)c1 (stereo unspecified) | 8.42% (inactive) |
| CCOC(=O)CCc1nc2ccccc2[nH]c1=O | 15.7% (inactive) |
| CC(C)C(=O)Nc1cc(=O)[nH]c2ncnn12 | 10.9% (inactive) |
| Cc1c(Cl)cnc(NC(=O)COC(=O)c2nn(C)c(=O)c3ccccc23)c1Cl | 12.5% (inactive) |
| Cc1ccc(CNCC(O)(c2ccccc2)c2ccc(Cl)cc2)cc1 (stereo unspecified) | 5.94% (inactive) |
| CCC(=O)c1ccc(N2CCOCC2)c(F)c1 | 10.3% (inactive) |
| O=C(CCc1ccccc1)Nc1ncc2c(n1)CCCC2=O | 14.5% (inactive) |
| O=C(O)c1cc2nc(-c3ccc(F)cc3)cc(C(F)(F)F)n2n1 | 8.45% (inactive) |
| O=C(CO/N=C/c1ccccc1OC(F)F)NCc1cccs1 | 1.25% (inactive) |
| O=C(N/N=C/c1ccc(C(F)(F)F)cc1)c1ccc(O)cc1 | 4.56% (inactive) |
| O=c1cc(CO)oc(C(Nc2ccccn2)c2ccccc2F)c1O (stereo unspecified) | 13.7% (inactive) |
| O=C1CC(N(Cc2cccs2)C(=O)Nc2ccccc2)C(=O)N1c1ccc(Cl)cc1 (stereo unspecified) | -1.04% (inactive) |
| CCOc1ccc(NC(=O)/C=C/c2ccc(OC)cc2)c([N+](=O)[O-])c1 | 13.8% (inactive) |
| COc1ccc2c(c1)c1ncn(CCCN3CCOCC3)c(=O)c1n2C | 1.07% (inactive) |
| CCOC(=O)N1CCc2c(sc3c2c(=O)n(Cc2ccccc2)c(=O)n3Cc2cccc(C)c2)C1 | 5.64% (inactive) |
| CCOC(=O)N1CCN(C(=S)NC(=O)c2cncc(Br)c2)CC1 | 19.8% (inactive) |
